Residues, ends and D or L forms follow the SMILES beside them. *: point of attachment. Cbz = O=C(OCc1ccccc1)*
Tests used:
Type in all cases: cell-based, human
[1] = system: γ-secretase; assay: γ-secretase HTS luciferase reporter assay (Aβ-KKK/Gal4 substrate, SteadyGlo); conditions: different concentrations; for inhibition of Aβ formation (luciferase signal): cell clones Aβ-KKK-ER/40, 59, 65 and Aβ-KKK/52 (also Aβ-KKK/40 for substance B), overnight
Text: H4 neuroglioma cells (Accession Number HTB 148 at the American Type Culture Collection, Manassas, Va., USA) were stably transfected under standard conditions with the reporter construct pFRLuc (Stratagene) which carries the gene for luciferase which is under the control of a promoter containing the Gal4 DNA binding domain. […] In order to prepare the Aβ-KKK/Gal4 construct, a sequence which contained the N-terminal signal sequence of APP and the first 55 amino acids of Aβ (Shoji, M. et al., Science, 1992; 158:126-129) was attached to the Gal4 coding sequence (Laughan, A. and Gesteland, R., Molec. Cell Biol., 1984, 4:260-267) by genetic engineering methods and cloned into the expression vector pcDNA3neo (Invitrogen). This construct was designated Aβ-KKK/Gal4. In order to insert an ER-retention signal in the substrate of the γ-secretase, the last nucleotides of the Gal4 were modified by genetic engineering methods so that they coded for amino acids KKLI. This construct was named Aβ-KKK-ER/Gal4. The cell clone obtained as described above was used for the second stable transfection with pcDNA3/Aβ-KKK/Gal4 or pcDNA3/Aβ-KKK-ER/Gal4 and the selection was carried out with neomycin under standard conditions (Sambrook and Maniatis, Molecular Cloning: A Laboratory Manual, Cold Spring Harbor Laboratory, Cold Spring Harbor, N.Y., 1989). Individual neomycin-resistant cell clones were tested for expression of luciferase. The clones with the highest expression were used for the substance analyses. All the transfections were carried out using the Fugene transfection system of Boehringer Mannheim in accordance with the manufacturer's instructions.
The doubly stable HTS cell line is seeded onto a 96/384 microtitre plate. When the cells achieved confluence they are incubated with the test substance in question for a specified length of time.
By the presence of an endogenous or exogenous γ-secretase activity in the H4 cells, the substrate (Aβ-KKK/Gal4) is cleaved proteolytically, whereupon the transactivator Gal4 can detach itself from the membrane and enter the cell nucleus. In the cell nucleus, Gal4 binds to the Gal4 DNA binding domain of the reporter construct and thus activates the expression of the luciferase. When a specific γ-secretase inhibitor is present the substrate cannot be cleaved and Gal4 remains bound to the substrate on the cell membrane, leading to a reduction and even total inhibition of the luciferase activity.
Cells are seeded onto 96/[…] well plates in DMEM whole medium (10% FCS, 1% glutamine, 1% penicillin/streptomycin) in a dilution of 1:5. […] Then, the luminescence is measured. […]

[2] = system: HTS test cell lines Aβ-KKK-ER/59 and Aβ-KKK/52 (H4 cells); assay: Alamar Blue vitality (cytotoxicity) test; conditions: clones Aβ-KKK-ER/59 and Aβ-KKK/52, entire range of concentrations, parallel to luciferase test
Method: A possible toxic effect of the BFA (in different concentrations) on the cells was investigated using an Alamar Blue test (see below) which was carried out in parallel to the luciferase test.
Alamar Blue (Messrs. Biosource International, VE=100 ml, Cat.No. DAL 1100 (AL-01 -100)) was sterile-filtered. The seeding of the cells and substance incubation were carried out as in Example 1.
The Alamar blue incubation was carried out parallel to the luciferase test.
Alamar blue was diluted to 5% with whole medium (DMEM m 4.5 g/l glucose+10% FCS+1% glutamine+1% Pen/Strep). The medium was suction filtered. The cells were washed once with medium or PBS. One hundred microliters of (5%) Alamar blue were added (96 well plate) and a plate was incubated for 1 hour in the incubator at 37° C. and in 5% CO2. Fluorimetric measurement was carried out at an input wavelength of 544 nm, an emission wavelength of 590 nm and a measuring time of 0.3 s/well. The results are given as a percentage of the control.

[3] = system: Aβ40 and Aβ42 secreted by U373/APP751 cell line; assay: ELISA of extracellular Aβ40 and Aβ42 secreted by U373/APP751 cells
Method: Substance A was also active in a cellular test system in which the extracellular content of Aβ40 and Aβ42 secreted by the U373 cell line (U373: ATCC No. HTB 14) was determined. This cell line, U373/APP751, is an astrocytoma cell line which overexpresses human APP751 and secretes large amounts of Aβ40 (about 1000 pg/ml/4 hours with 5×10^7 cells in 15 ml of medium) and Aβ42 (about 1000 pg/ml/4 hours with 5×10^7 cells in 15 ml of medium). The measurement is carried out by ELISA (Steiner, H. et al., J. Biol. Chem, 1998, 273:32322-32331).

Row | Structure (SMILES) | BFA effect on luciferase signal ([1]; cell clone Aβ-KKK/52 (without ER retention signal), 6 hours) | loss of vitality (toxic effect on the cells) [2] | inhibition of Aβ formation (luciferase signal) [1] | Aβ40 secretion [3] | Aβ42 secretion [3]
1 | C[C@H]1CCC/C=C/[C@@H]2C[C@H](O)C[C@H]2[C@H](O)/C=C/C(=O)O1 [BFA, Brefeldin A, reference compound] | clear BFA effect could be seen | No loss of vitality | – | – | –
2 | CCCCNC(=O)[C@@H](C[C@H](O)[C@H](CC1CCCCC1)NCCCC(C)C)C(C)C [Substance A] | – | – | inhibits Aβ formation in a manner dependent on concentration | greatly reduced in concentration-dependent manner | increased at sub-inhibitory doses and then also inhibited at higher doses
3 | CC(C)C(NC(=O)OCc1ccccc1)C(=O)NC(C=O)Cc1ccccc1 (stereo not drawn) [Substance B] (Cbz-Val-Phe-aldehyde; configuration not given here) | – | – | does not inhibit Aβ formation in concentration-dependent manner | – | –
4 | Cc1nccn1Cc1ccccn1 [Substance C] | – | – | does not inhibit Aβ formation in concentration-dependent manner | – | –
